Assay results: PMC7997411, “Discovery and Optimization of Selective Inhibitors of Meprin α (Part II)” (Pharmaceuticals, 2021)
pIC50: −log10 of the molar value.

Key:
MMP1 = biological target: T1, MMP1 (Homo sapiens, UniProt P03956); experiment: MMP assay (fluorogenic substrate ES010); assay type: biochemical
T1 construct: purchased R&D Systems 901-MP
T1 sequence (P03956 100-469): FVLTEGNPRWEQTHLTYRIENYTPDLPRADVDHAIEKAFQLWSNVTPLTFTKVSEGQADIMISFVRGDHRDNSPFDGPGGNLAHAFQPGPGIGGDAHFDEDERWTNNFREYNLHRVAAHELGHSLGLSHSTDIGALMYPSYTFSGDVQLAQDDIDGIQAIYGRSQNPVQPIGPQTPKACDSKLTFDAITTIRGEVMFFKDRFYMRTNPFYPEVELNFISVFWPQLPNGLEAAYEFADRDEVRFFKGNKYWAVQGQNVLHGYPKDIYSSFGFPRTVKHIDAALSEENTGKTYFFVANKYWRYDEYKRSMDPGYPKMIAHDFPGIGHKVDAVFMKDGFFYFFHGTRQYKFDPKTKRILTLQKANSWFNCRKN
Experimental: (§1) MMP-1, MMP-2, MMP-8, MMP-9, MMP-10, MMP-13, MMP-14, ADAM10, ADAM17 and Mca-KPLGL-Dpa-AR-NH2 fluorogenic peptide substrate were purchased from R&D Systems (cat # 901-MP, 902-MP, 908-MP, 911-MP, 910-MP, 511-MM, 918-MP, 936-AD, 930-ADB, and ES010, respectively). All common chemicals were purchased from Sigma. NFF449 was purchased from Tocris (cat# 1391) and actinonin was from Sigma-Aldrich, St. Louis, MO, USA (cat# 01809).
(§2) All assays followed the same general protocol. 5 µL of 2× enzyme solution (5 nM) in assay buffer (50 mM Tricine, 50 mM NaCl, 10 mM CaCl2, 0.05% Brij-35, pH 7.5) were added to solid-bottom black 384 plates (Nunc, cat# 264705). Next, test compounds and pharmacological controls were added to corresponding wells using a 384-pin tool device (V&P Scientific, San Diego). After 30 min incubation at RT, the reactions were started by addition of 5 µL of 2× solutions of MMP substrate (R&D Systems cat#: ES010, 20 µM). Reactions were incubated at RT for 1 h, after which the fluorescence was measured using the Synergy H4 multimode microplate reader (Biotek Instruments) (λexcitation = 324 nm, λemission = 390 nm). All compounds were tested in 10-point, 1:3 serial dilutions dose-response format starting with highest concentration of 100 µM. IC50 values were determined using non-linear regression analysis using the GraphPad Prism 8.0 suite of programs.

[1] = test system: WM266-4 (skin melanoma), HEK293 (kidney), and BJ (skin fibroblasts) cells; experiment: Cell viability, CellTiter Glo assay after 72 h treatment; assay type: cell-based
Experimental: (§3) Figure 6 Characterization of SR24717 for effects on cell viability and cytotoxicity. (A) Effect of SR24717 on viability of WM266-4 (skin melanoma), HEK293 (kidney), and BJ (skin fibroblasts) cells. CellTiter Glo™ assay (Promega) was used after 72 h treatment. (B) Effect of SR24717 on viability of HEK293 (kidney) and BJ (skin fibroblasts) cells. The CellTox Green™ assay (Promega) was used. All experiments performed as 10-point 3-fold concentration-response curves in triplicate.
Test compounds were solubilized in 100% DMSO and added to polypropylene 384-well plates (Greiner cat# 781280). 1250 of BJ skin fibroblasts or primary melanocytes were plated in 384-well plates in 8 µL of serum-free media (HybriCare for BT474, EMEM for HEK293). […] Luminescence was recorded using a Biotek Synergy H1 multimode microplate reader. Viability was expressed as a percentage relative to wells containing media only (0%) and wells containing cells treated with DMSO only (100%). Three parameters were calculated on a per-plate basis: (a) the signal-to-background ratio (S/B), (b) the coefficient for variation (CV; CV = (standard deviation/mean) × 100) for all compound test wells, and (c) the Z’-factor. IC50 values were calculated by fitting normalized data to sigmoidal log vs. response equation utilizing non-linear regression analysis from GraphPad Prism 8.

MMP3 = MMP3 (Homo sapiens, UniProt P08254); experiment: MMP assay (fluorogenic substrate ES010); assay type: biochemical
MMP3, sequence (P08254 100-477, species assumed): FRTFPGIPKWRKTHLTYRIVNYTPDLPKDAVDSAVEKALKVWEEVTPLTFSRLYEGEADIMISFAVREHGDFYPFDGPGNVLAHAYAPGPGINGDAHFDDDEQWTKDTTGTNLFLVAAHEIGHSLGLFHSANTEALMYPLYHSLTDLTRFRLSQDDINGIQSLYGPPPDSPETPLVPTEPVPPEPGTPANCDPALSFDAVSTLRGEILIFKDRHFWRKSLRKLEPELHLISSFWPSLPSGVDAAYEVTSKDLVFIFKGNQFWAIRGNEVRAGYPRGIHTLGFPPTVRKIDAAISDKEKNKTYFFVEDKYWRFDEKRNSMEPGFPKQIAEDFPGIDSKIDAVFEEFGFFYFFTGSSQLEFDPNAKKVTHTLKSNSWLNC
Experimental: as §2

MMP10 = biological target: T2, MMP10 (Homo sapiens, UniProt P09238); experiment: MMP assay (fluorogenic substrate ES010); assay type: biochemical
T2 construct: purchased R&D Systems 910-MP
T2 sequence (P09238 99-476): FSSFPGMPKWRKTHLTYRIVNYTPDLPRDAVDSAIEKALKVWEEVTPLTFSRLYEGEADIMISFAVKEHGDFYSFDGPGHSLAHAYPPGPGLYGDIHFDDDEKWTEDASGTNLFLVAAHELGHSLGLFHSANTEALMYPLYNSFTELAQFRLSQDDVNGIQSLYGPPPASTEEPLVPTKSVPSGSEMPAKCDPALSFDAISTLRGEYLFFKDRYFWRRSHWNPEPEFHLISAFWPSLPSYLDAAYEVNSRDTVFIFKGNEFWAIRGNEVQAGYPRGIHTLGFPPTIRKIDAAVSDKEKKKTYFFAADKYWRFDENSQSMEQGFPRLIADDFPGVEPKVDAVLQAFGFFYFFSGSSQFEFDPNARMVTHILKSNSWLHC
Experimental: as §1, §2

[2] = test system: HEK293 (kidney) and BJ (skin fibroblasts) cells; experiment: Cytotoxicity, CellTox Green assay; assay type: cell-based
Experimental: as §3

meprin α = biological target: T3, meprin α (Homo sapiens, UniProt Q16819); experiment: Meprin α assay in a 384-well plate (fluorogenic substrate Mca-YVADAPK-K(Dnp)); assay type: biochemical; conditions: pre-incubation with meprin α for 0–3 h
T3 construct: Strep-tag; made in house; host or cells: BTI-TN-5B1-4 insect cells (baculovirus, amplified in Sf9)
T3 sequence (Q16819 66-746): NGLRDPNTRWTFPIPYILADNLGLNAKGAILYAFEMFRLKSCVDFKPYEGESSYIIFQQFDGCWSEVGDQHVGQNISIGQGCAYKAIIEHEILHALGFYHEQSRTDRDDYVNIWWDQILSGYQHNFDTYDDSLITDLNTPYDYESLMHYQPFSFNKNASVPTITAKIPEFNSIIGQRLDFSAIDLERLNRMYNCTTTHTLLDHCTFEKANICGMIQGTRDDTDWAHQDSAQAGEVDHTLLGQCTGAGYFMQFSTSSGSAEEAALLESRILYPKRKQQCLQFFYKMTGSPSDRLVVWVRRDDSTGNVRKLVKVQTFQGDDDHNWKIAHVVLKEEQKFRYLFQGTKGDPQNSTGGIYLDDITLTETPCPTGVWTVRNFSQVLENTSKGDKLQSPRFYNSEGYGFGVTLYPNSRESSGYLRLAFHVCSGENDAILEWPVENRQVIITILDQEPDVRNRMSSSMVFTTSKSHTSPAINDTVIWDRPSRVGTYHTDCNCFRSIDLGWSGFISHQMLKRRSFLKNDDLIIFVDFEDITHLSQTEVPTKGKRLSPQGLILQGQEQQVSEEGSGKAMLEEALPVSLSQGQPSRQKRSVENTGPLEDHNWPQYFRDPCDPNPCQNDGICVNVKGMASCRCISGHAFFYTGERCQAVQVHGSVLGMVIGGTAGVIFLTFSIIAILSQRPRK

| pIC50 (MMP1) | pIC50 (MMP3) | pIC50 (MMP10) | time dependence of inhibition: change in IC50 values (meprin α) | Structure (SMILES) | concentration at which negative effects on viability were observed [1] | concentration at which cytotoxicity was observed [2] |
| --- | --- | --- | --- | --- | --- | --- |
| 7.00 | – | – | – | CCCCC[C@H](CC(=O)NO)C(=O)N[C@H](C(=O)N1CCC[C@H]1CO)C(C)C [Actinonin, actinonin, reference compound] | – | – |
| – | < 4.00 | < 4.00 | no change in IC50 values | COc1cc(OC)nc(SCc2nnc(SCC(=O)NO)n2-c2ccc(N(C)C)cc2)n1 [SR24717] | 100 µM | 100 µM |
